Experimental data reported in PubChem BioAssay (NCI).
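All cell lines were grown in 96-well plates and treated with compound for 48 hours. GI50 = concentration required for 50% inhibition of growth. The concentration for full growth arrest is given as TGI.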

Tests used:
Assay in all cases: growth of human tumour cells (NCI), 48 h
UACC-62 melanoma = tested on: UACC-62 melanoma
SR leukemia = tested on: SR leukemia
SK-MEL-5 melanoma = tested on: SK-MEL-5 melanoma
COLO 205 colon = tested on: COLO 205 colon
LOX IMVI melanoma = tested on: LOX IMVI melanoma
HCT-116 colon = tested on: HCT-116 colon
KM12 colon = tested on: KM12 colon
786-0 renal = tested on: 786-0 renal
SK-OV-3 ovarian = tested on: SK-OV-3 ovarian
SNB-75 CNS = tested on: SNB-75 CNS

Row | Compound | TGI (UACC-62 melanoma) [µM] | TGI (SR leukemia) [µM] | TGI (SK-MEL-5 melanoma) [µM] | TGI (COLO 205 colon) [µM] | TGI (LOX IMVI melanoma) [µM] | TGI (HCT-116 colon) [µM] | TGI (KM12 colon) [µM] | TGI (786-0 renal) [µM] | GI50 (UACC-62 melanoma) [µM] | GI50 (SK-MEL-5 melanoma) [µM] | GI50 (COLO 205 colon) [µM] | GI50 (LOX IMVI melanoma) [µM] | GI50 (HCT-116 colon) [µM] | GI50 (KM12 colon) [µM] | GI50 (SK-OV-3 ovarian) [µM] | TGI (SK-OV-3 ovarian) [µM] | GI50 (786-0 renal) [µM] | TGI (SNB-75 CNS) [µM] | GI50 (SNB-75 CNS) [µM] | GI50 (SR leukemia) [µM]
1 | NP(=O)(Oc1c2occc2cc2ccc(=O)oc12)N(CCCl)CCCl (centres undefined) | > 100 | > 100 | > 100 | > 100 | > 100 | > 100 | > 100 | > 100 |  |  |  |  |  |  |  |  |  |  |  | 
2 | Clc1ccc(C2=Nn3c(COc4ccccc4Cl)nnc3SC2)c(Cl)c1 | 35.5 |  | 28.5 | 33.5 | 28.7 | 27.9 | 34 | 65.4 | 15.1 | 12.6 | 14.7 | 15.2 | 14.7 | 16.9 | 28.1 | 86.3 | 25.6 |  |  | 
3 | COc1ccc(/C=C/c2ccnc3ccccc23)c(OC)c1 | > 10 |  | > 10 | > 10 | > 10 | > 10 | > 10 | > 10 |  |  |  |  |  |  |  | > 10 |  | > 10 |  | 
4 | COc1ccc(C(=O)C(C(=O)CCC(=O)Nc2cccc(Cl)c2)c2ccc(OC)cc2)cc1 (centres undefined) | > 100 | > 100 | > 100 | > 100 |  | > 100 | > 100 | > 100 |  |  |  |  |  |  |  | > 100 |  | > 100 |  | 
5 | COc1ccccc1CCc1cc(OC)c(OC)c(OC)c1 | > 100 |  | 42.7 | > 100 | > 100 | > 100 | > 100 | > 100 |  |  |  |  |  |  |  |  |  | > 100 |  | 
6 | CC(C)(C)c1ccc2c(c1)S(=O)(=O)Nc1ccccc1NS(=O)(=O)c1cc(C(C)(C)C)ccc1OCCOCCOCCO2 | > 100 |  | > 100 | > 100 | > 100 | > 100 | > 100 | > 100 |  |  |  |  |  |  |  | > 100 |  | > 100 |  | 
7 | Cc1cc(Cl)ccc1N=C1NC(=O)C(CC(=O)Nc2ccc([N+](=O)[O-])cc2[N+](=O)[O-])S1 (centres undefined) | 64.7 |  | 31.1 | > 100 | > 100 |  | > 100 | > 100 |  |  |  |  |  |  |  | 55 |  | 44.2 |  | 
8 | OC[C@H]1CCCC1O (some centres undefined) | > 100 | > 100 | > 100 | > 100 |  | > 100 | > 100 | > 100 |  |  |  |  |  |  |  |  |  | > 100 |  | 
9 | Cc1ccc(C(=O)CN(/C=C/C(=O)C(F)(F)F)c2ccc(S(N)(=O)=O)cc2)cc1 | > 100 |  | > 100 | > 100 | > 100 | > 100 | > 100 | > 100 | > 100 | 49.8 | > 100 | 76 | 41.9 | 31.4 | > 100 | > 100 | > 100 |  |  | 
10 | CCOC(=O)c1c(C)n(Cc2ccc(Cl)cc2Cl)c2c1c(CN(C)C)c(O)c1[nH]cnc12 |  | 4.76 | 30.9 | 37.7 | 29.1 | 33 | 35.8 | 41.4 |  | 17.2 | 20.1 | 15.7 | 19 | 17.8 | 27.3 | 43.6 | 20.1 | 17 | 3.55 | 0.557
